Measurements published in patent US9745283B2, “Uracil derivatives as AXL and c-MET kinase inhibitors” (priority 2011, dated 2017).
Like-named read-outs stand apart in the source and are kept apart here.

Tests used:
[1] = molecular target: recombinant human baculovirus-expressed AXL (Homo sapiens (Human), UniProt P30530); experiment: AXL Kinase Assay (HTRF KinEASE); format: biochemical; conditions: average of two or more determinations
Protocol: The ability of compounds to inhibit the kinase activity of recombinant human baculovirus-expressed AXL was measured by homogeneous TRF (HTRF) using Cisbio's KinEASE™ assay system in white 384-well Optiplates. Assay buffer contained 1 mM DTT, 2 mM MnCl2, 2% DMSO, […] supplement enzymatic buffer, and 1× enzymatic buffer. A 2× concentration of tyrosine kinase (TK) substrate-biotin/ATP mixture made in assay buffer was added to plates at 10 μL/well using the Multidrop Combi (Thermo Fisher Scientific, Waltham, Mass.). […] Compounds (100 nL), diluted in 100% DMSO on the Biomek FX, (Beckman Coulter, Inc., Brea, Calif.), were transferred to the assay plates using the Biomek FX pintool (2.5% final DMSO in assay). […] Plates were sealed, briefly shaken and incubated at 25° C. for 30 minutes. […] Plates were sealed, briefly shaken and incubated at 25° C. for 1 hour.
Inhibition curves for compounds were generated by plotting percent control activity versus log 10 of the concentration of compound. IC50 values were calculated by nonlinear regression using the sigmoidal dose-response (variable slope) equation in GraphPad Prism as follows: y=bottom+(top−bottom)/(1+10(log IC50−x)*Hill Slope) where y is the % kinase activity at a given concentration of compound, x is the logarithm of the concentration of compound, bottom is the % of control kinase activity at the highest compound concentration tested, and top is the % of control kinase activity at the lowest compound concentration examined. The values for bottom and top were fixed at 0 and 100, respectively.

[2] = molecular target: recombinant human baculovirus-expressed cMET (Homo sapiens (Human), UniProt P08581); experiment: C-MET Kinase Assay (HTRF KinEASE); format: biochemical
How it was run: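 HTRF KinEASE format with recombinant human baculovirus-expressed cMET at 8 ng/mL, biotinylated peptide at 0.1 μM and ATP at 0.02 μM. IC50 came from percent control activity versus log concentration, fitted by nonlinear regression to a variable-slope sigmoidal equation with bottom fixed at 0 and top at 100.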

[3] = average of two or more determinations, read-out: c-MET IC50

| Compound | IC50 [1] | IC50 [2, 3] | IC50 [2] |
| --- | --- | --- | --- |
| COc1cc2nccc(Oc3ccc(NC(=O)c4cn(CCc5ccc(F)cc5)c(=O)n(-c5ccc(F)cc5)c4=O)cc3F)c2cc1OC [Example 79, 3-(4-Fluoro-phenyl)-1-[2-(4-fluoro-phenyl)-ethyl]-2,4-dioxo-1,2,3,4-tetrahydro-pyrimidine-5-carboxylic acid [4-(6,7-dimethoxy-quinolin-4-yloxy)-3-fluoro-phenyl]-amide] | < 10 nM | 10 to 100 nM | – |
| COc1cc2nccc(Oc3ccc(NC(=O)c4cn(C(C)C)c(=O)n(-c5ccc(F)cc5)c4=O)nc3)c2cc1OC [Example 34, 3-(4-Fluorophenyl)-1-isopropyl-2,4-dioxo-1,2,3,4-tetrahydropyrimidine-5-carboxylic acid [5-(6,7-dimethoxyquinolin-4-yloxy)-pyridin-2-yl]-amide] | < 10 nM | 10 to 100 nM | – |
| COc1cc2nccc(Oc3ccc(NC(=O)c4cn(CCC5OCCO5)c(=O)n(-c5ccc(F)cc5)c4=O)cc3F)c2cc1OC [Example 65, 1-[2-(1,3-Dioxolan-2-yl-ethyl)]-3-(4-fluoro-phenyl)-2,4-dioxo-1,2,3,4-tetrahydro-pyrimidine-5-carboxylic acid [4-(6,7-dimethoxy-quinolin-4-yloxy)-3-fluoro-phenyl]-amide] | < 10 nM | 10 to 100 nM | – |
| COc1cc2nccc(Oc3ccc(NC(=O)c4cn(C)c(=O)n(-c5ccc(F)cc5)c4=O)c(F)c3)c2cc1OC [Example 86, 3-(4-Fluoro-phenyl)-1-methyl-2,4-dioxo-1,2,3,4-tetrahydro-pyrimidine-5-carboxylic acid [4-(6,7-dimethoxy-quinolin-4-yloxy)-2-fluoro-phenyl]-amide] | < 10 nM | 10 to 100 nM | – |
| COc1cc2nccc(Cc3ccc(NC(=O)c4cn(C)c(=O)n(-c5ccc(F)cc5)c4=O)cc3F)c2cc1OC [Example 58, 3-(4-fluoro-phenyl)-1-methyl-2,4-dioxo-1,2,3,4-tetrahydro-pyrimidine-5-carboxylic acid [4-(6,7-dimethoxy-quinolin-4-ylmethyl)-3-fluoro-phenyl]-amide] | < 10 nM | 10 to 100 nM | – |
| COc1cc2nccc(Oc3ccc(NC(=O)c4c[nH]c(=O)n(-c5ccc(F)cc5)c4=O)cc3)c2cc1OC [Example 24, 3-(4-Fluorophenyl)-2,4-dioxo-1,2,3,4-tetrahydropyrimidine-5-carboxylic acid [4-(6,7-dimethoxyquinolin-4-yloxy)phenyl]-amide] | < 10 nM | < 10 nM | – |
| COc1cc2nccc(Oc3ccc(NC(=O)c4cn(CCn5ccnc5)c(=O)n(-c5ccc(F)cc5)c4=O)cc3F)c2cc1OC [Example 62, 3-(4-Fluoro-phenyl)-1-(2-imidazol-1-yl-ethyl)-2,4-dioxo-1,2,3,4-tetrahydro-pyrimidine-5-carboxylic acid [4-(6,7-dimethoxy-quinolin-4-yloxy)-3-fluoro-phenyl]-amide] | < 10 nM | < 10 nM | – |
| COc1cc2nccc(Oc3ccc(NC(=O)c4nn(C)c(=O)n(CC5CC5)c4=O)cc3F)c2cc1OC [Example 125, 4-Cyclopropylmethyl-2-methyl-3,5-dioxo-2,3,4,5-tetrahydro-[1,2,4]triazine-6-carboxylic acid [4-(6,7-dimethoxy-quinolin-4-yloxy)-3-fluoro-phenyl]-amide] | < 10 nM | 10 to 100 nM | – |
| CCn1c(=O)c(C(=O)Nc2ccc(Oc3ccnc4cc(OC)c(OC)cc34)c(F)c2)cn(-c2ccc(F)cc2)c1=O [Example 91, 3-Ethyl-1-(4-fluoro-phenyl)-2,4-dioxo-1,2,3,4-tetrahydro-pyrimidine-5-carboxylic acid [4-(6,7-dimethoxy-quinolin-4-yloxy)-3-fluoro-phenyl]-amide] | < 10 nM | 10 to 100 nM | – |
| COc1cc2nccc(Oc3ccc(NC(=O)c4cn(CCc5ccccc5)c(=O)n(-c5ccc(F)cc5)c4=O)cc3F)c2cc1OC [Example 64, 3-(4-Fluoro-phenyl)-2,4-dioxo-1-phenethyl-1,2,3,4-tetrahydro-pyrimidine-5-carboxylic acid [4-(6,7-dimethoxy-quinolin-4-yloxy)-3-fluoro-phenyl]-amide] | < 10 nM | 10 to 100 nM | – |
| CCn1cc(C(=O)Nc2ccc(Oc3ccnc4cc(OC)c(OC)cc34)cc2)c(=O)n(-c2ccc(F)cc2)c1=O [Example 28, 1-Ethyl-3-(4-fluorophenyl)-2,4-dioxo-1,2,3,4-tetrahydropyrimidine-5-carboxylic acid [4-(6,7-dimethoxyquinolin-4-yloxy)-phenyl]-amide] | < 10 nM | < 10 nM | – |
| COc1cc2nccc(Oc3ccc(NC(=O)c4cn(CCN5CCCC5)c(=O)n(-c5ccc(F)cc5)c4=O)cc3F)c2cc1OC [Example 26, 3-(4-Fluorophenyl)-2,4-dioxo-1-(2-pyrrolidin-1-yl-ethyl)-1,2,3,4-tetrahydropyrimidine-5-carboxylic acid [4-(6,7-dimethoxyquinolin-4-yloxy)-3-fluorophenyl]-amide] | < 10 nM | 10 to 100 nM | – |
| COc1cc2nccc(Oc3ccc(NC(=O)c4cn(C(C)C)c(=O)n(-c5ccc(F)cc5)c4=O)cc3F)c2cc1OC [Example 5, 3-(4-Fluorophenyl)-1-isopropyl-2,4-dioxo-1,2,3,4-tetrahydropyrimidine-5-carboxylic acid [4-(6,7-dimethoxyquinolin-4-yloxy)-3-fluorophenyl]-amide] | < 10 nM | – | 10 to 100 nM |
| COc1cc2nccc(Oc3ccc(NC(=O)c4cn(CC(=O)N5CCOCC5)c(=O)n(-c5ccc(F)cc5)c4=O)cc3F)c2cc1OC [Example 67, 3-(4-Fluoro-phenyl)-1-(2-morpholin-4-yl-2-oxo-ethyl)-2,4-dioxo-1,2,3,4-tetrahydro-pyrimidine-5-carboxylic acid [4-(6,7-dimethoxy-quinolin-4-yloxy)-3-fluoro-phenyl]-amide] | < 10 nM | 10 to 100 nM | – |
| COc1cc2nccc(Oc3ccc(NC(=O)c4cn(C)c(=O)n(-c5ccc(F)cc5)c4=O)cc3)c2cc1OC [Example 18, 3-(4-Fluorophenyl)-1-methyl-2,4-dioxo-1,2,3,4-tetrahydropyrimidine-5-carboxylic acid [4-(6,7-dimethoxyquinolin-4-yloxy)-phenyl]-amide] | < 10 nM | 10 to 100 nM | – |
| COc1cc2nccc(Oc3ccc(NC(=O)c4c[nH]c(=O)n(-c5ccc(F)cc5)c4=O)cc3F)c2cc1OC [Example 17, 3-(4-Fluorophenyl)-2,4-dioxo-1,2,3,4-tetrahydropyrimidine-5-carboxylic acid [4-(6,7-dimethoxyquinolin-4-yloxy)-3-fluorophenyl]-amide] | < 10 nM | < 10 nM | – |
| COc1cc2nccc(Oc3ccc(NC(=O)c4cn(CCN5CCCCC5)c(=O)n(-c5ccc(F)cc5)c4=O)cc3F)c2cc1OC [Example 27, 3-(4-Fluorophenyl)-2,4-dioxo-1-(2-piperidin-1-yl-ethyl)-1,2,3,4-tetrahydropyrimidine-5-carboxylic acid [4-(6,7-dimethoxyquinolin-4-yloxy)-3-fluorophenyl]-amide] | < 10 nM | 10 to 100 nM | – |
| COc1cc2nccc(Oc3ccc(NC(=O)c4cn(CC(C)C)c(=O)n(-c5ccc(F)cc5)c4=O)cc3F)c2cc1OC [Example 8, 3-(4-Fluorophenyl)-1-isobutyl-2,4-dioxo-1,2,3,4-tetrahydropyrimidine-5-carboxylic acid [4-(6,7-dimethoxyquinolin-4-yloxy)-3-fluorophenyl]-amide] | < 10 nM | 10 to 100 nM | – |
| Cn1cc(C(=O)Nc2ccc(Oc3ccnc4cc5c(cc34)OCO5)c(F)c2)c(=O)n(-c2ccc(F)cc2)c1=O [Example 131, 3-(4-Fluoro-phenyl)-1-methyl-2,4-dioxo-1,2,3,4-tetrahydro-pyrimidine-5-carboxylic acid [4-([1,3]dioxolo[4,5-g]quinolin-8-yloxy)-3-fluoro-phenyl]-amide] | < 10 nM | 10 to 100 nM | – |
| CC(C)n1nc(C(=O)Nc2ccc(Oc3ccnc4cc5c(cc34)OCCO5)c(F)c2)c(=O)n(-c2ccc(F)cc2)c1=O [Example 106, 4-(4-Fluorophenyl)-2-isopropyl-3,5-dioxo-2,3,4,5-tetrahydro-[1,2,4]triazine-6-carboxylic acid [4-(2,3-dihydro-[1,4]dioxino[2,3-g]quinolin-9-yloxy)-3-fluorophenyl]-amide] | < 10 nM | 10 to 100 nM | – |
| CCCn1cc(C(=O)Nc2ccc(Oc3ccnc4cc(OC)c(OC)cc34)c(F)c2)c(=O)n(-c2ccc(F)cc2)c1=O [Example 11, 3-(4-Fluorophenyl)-2,4-dioxo-1-propyl-1,2,3,4-tetrahydropyrimidine-5-carboxylic acid [4-(6,7-dimethoxyquinolin-4-yloxy)-3-fluorophenyl]-amide] | < 10 nM | 10 to 100 nM | – |
